Measured values: patent US20240316023A1, “BENEDIN, PIPERIDINE, 2-BENZHYDRYL-3-HYDROXY-N-METHYL-, HYDROCHLORIDE AND DERIVATIVES THEREOF FOR USE IN TREATING KLEINE-LEVIN SYNDROME” (priority 2021, published 2024)

Molecular target: T1, RXFP3 (h) (agonist radioligand) (Homo sapiens, UniProt Q9NSD7)
T1 sequence (Q9NSD7 1-469): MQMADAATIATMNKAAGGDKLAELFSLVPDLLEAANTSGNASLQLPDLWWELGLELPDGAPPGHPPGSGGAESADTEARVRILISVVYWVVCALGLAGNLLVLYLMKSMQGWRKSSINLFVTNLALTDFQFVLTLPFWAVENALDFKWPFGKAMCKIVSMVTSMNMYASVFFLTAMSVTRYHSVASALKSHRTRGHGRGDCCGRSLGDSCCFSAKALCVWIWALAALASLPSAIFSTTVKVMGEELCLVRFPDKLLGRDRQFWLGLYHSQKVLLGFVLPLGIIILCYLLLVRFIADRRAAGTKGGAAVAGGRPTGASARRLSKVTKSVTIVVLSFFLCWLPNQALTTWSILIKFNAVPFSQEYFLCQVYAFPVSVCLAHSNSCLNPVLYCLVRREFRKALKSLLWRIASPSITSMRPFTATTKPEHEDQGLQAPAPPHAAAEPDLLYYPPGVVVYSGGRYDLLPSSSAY
Experiment: GPCR Biosensor cAMP Hunter assay, RXFP3
Format: cell-based
Protocol: Benedin is found to weakly bind with RXFP4 and RXFP3 receptors (Study FR095-0024749-Q Eurofins/leadHunter Jun. 25, 2021; unpublished data) (Table 2).
In these assays' compounds were tested in agonist and antagonist mode with the GPCR Biosensor Assays and match to this design:
1. cAMP Hunter cell lines were expanded from freezer stocks according to standard procedures.
2. Cells were seeded in a total volume of 20 μL into white walled, 384-well microplates and incubated at 37° C. for the appropriate time prior to testing.
3. cAMP modulation was determined using the DiscoverX HitHunter CAMP XS+assay.
1. For agonist determination, cells were incubated with sample in the presence of EC80 forskolin to induce response.
2. Media was aspirated from cells and replaced with 15 μL 2:1 HBSS/10 mM Hepes: CAMP XS+Ab reagent. […]
2. Microplates were read following signal generation with a PerkinElmer Envision™ instrument for chemiluminescent signal detection.
5. For Gi agonist mode assays, percentage activity is calculated using the following formula: % Activity=100%×(1−(mean RLU of test sample-mean RLU of MAX control)/(mean RLU of vehicle control−mean RLU of MAX control)).
8. For Gi antagonist or negative allosteric mode assays, percentage inhibition is calculated using the following formula: % Inhibition=100%×(mean RLU of test sample−mean RLU of EC80 control)/(mean RLU of forskolin positive control−mean RLU of […]

SMILES: CN1CCCC(O)C1C(c1ccccc1)c1ccccc1 (centres unmarked) [Benedin, 2-benzhydryl-3-hydroxy-N-methyl-piperidine]
- % Inhibition at 10^−5M Benedin: weakly bind
- inhibition at 10 µM (10^−5 M, read-out: % Inhibition at 10^−5M Benedin): 21.4%
